TGI data for 49 compounds are collected here from PubChem BioAssay (NCI).

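96-well plates; 48 h exposure; 5 concentrations. Endpoints by linear interpolation between flanking doses. Not reached: highest tested concentration assigned. TGI denotes the concentration required for complete inhibition of growth.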

Holding throughout (test): NCI tumour cell line growth inhibition, 48 h
For experiment [1], the system named is MDA-N.
Experiment [2] deals with P388 leukemia.
Experiment [3] relates to M19-MEL melanoma.
Experiment [4] concerns HOP-18 NSCLC.
The subject of experiment [5] is P388/ADR leukemia.
In experiment [6] the test system is KM20L2 colon.
The subject of experiment [7] is DLD-1 colon.
The test system of experiment [8] is XF 498 CNS.
The test system of experiment [9] is SN12K1 renal.
The subject of experiment [10] is RXF-631 renal.

With `O=C[C@@H](CO)O[C@H](C=O)c1c[nH]c(=O)[nH]c1=O`, the TGI in [1] worked out at 307 µM; in [2], 307 µM; in experiment [3], 406 µM; in experiment [4], 267 µM; in experiment [5], 373 µM; in experiment [6], 310 µM. Also, the values for the TGI in [7], in experiment [8] and in experiment [9] were 493 µM, 86.7 µM and 183 µM, respectively.

Consider `CC(NS(=O)(=O)c1ccc([N+](=O)[O-])cc1)C(=O)O` (centres undefined), for which the TGI in experiment [4], in experiment [6], in [10], in [7] and in experiment [8] was more than 100 µM in each case.

As to `COc1cccc2c1C(=O)C=CC2=O`, the TGI in experiment [3] was determined as 16.1 µM; in experiment [4], 23.6 µM; in experiment [6], 30.6 µM; in [7], 39 µM; in experiment [8], 5.25 µM.

Take `COc1ccccc1/C=C(\C#N)c1ccccc1`: the TGI in [3], in experiment [4], in experiment [6] and in [7] was more than 100 µM each time.

With `C/C(CN1C(=O)c2ccccc2C1=O)=N\NS(=O)(=O)c1ccc(C)cc1`, the TGI in experiment [3], in experiment [4], in experiment [6] and in experiment [7] was more than 100 µM each time.

In turn, `Cc1ccc(S(=O)(=O)N2CCCN(S(=O)(=O)c3ccc(C)cc3)CCN(S(=O)(=O)c3ccc(C)cc3)CCCSCC2)cc1` showed a TGI in [1] of more than 100 µM.

Take `Cc1ccc(S(=O)(=O)c2c(N)c3nc4ccccc4n3c3nc4ccccc4nc23)cc1`: the TGI in experiment [3], in experiment [6], in experiment [10] and in experiment [7] was more than 100 µM throughout.

Turning to `CC1CC[C@]2(C(=O)O)CCC3(COC(=O)/C=C\c4ccc(O)cc4)C(=CCC4[C@@]5(C)CC[C@H](O)C(C)(C)C5CC[C@]43C)[C@@H]2[C@H]1C` (some centres undefined), the TGI in [3] is 50.8 µM; in experiment [4], 69.8 µM; in experiment [6], 33.6 µM; in [10], 77.9 µM; in experiment [7], 30.8 µM.

As for `Cc1c2cc[n+](C)cc2c(C)c2c1sc1ccccc12`, the TGI in experiment [1] stood at 11.3 µM; in [3], 4.04 µM; in experiment [4], 36.2 µM; in [6], 31.8 µM; in [10], 14.4 µM; in experiment [7] it was 51.2 µM. The same compound gave a TGI in experiment [8] of 2.69 µM.

In the case of `CN(C)c1ccc2c(=O)c3ccccc3oc2n1`, the TGI in experiment [3], in experiment [6], in experiment [10], in [7] and in experiment [8] was more than 100 µM each time.

For the compound `N#Cc1ccccc1NC(=O)/C(=N\N)C(C(=O)c1ccncc1)C1OC(=O)c2ccccc21` (centres undefined), the TGI in experiment [3], in [6] and in [8] was more than 100 µM in each case.

`O=C1[C@@H]2C(c3ccccc3Br)=NO[C@@H]2C(=O)N1c1ccc(Cc2ccc(N3C(=O)[C@H]4C(c5ccccc5Br)=NO[C@H]4C3=O)cc2)cc1`: the TGI in experiment [3], in [4], in experiment [6], in experiment [10], in [7] and in experiment [8] was more than 100 µM each time.

On to `C[N+](C)(C)CC1CCCC/C1=N\OC(=O)c1ccccc1` (centres undefined), for which the TGI in [3], in experiment [4], in [6], in experiment [10] and in [7] was more than 100 µM in each case.

For `CCOC(=O)Nc1cc2nnc(-c3ccccc3)nc2c(N)n1`, the TGI was more than 100 µM in [3], 20.4 µM in [6], more than 100 µM in experiment [7] and more than 100 µM in [8].

On to `NC1=NC(=O)/C(=C/c2ccccc2[N+](=O)[O-])C(N)=N1`, for which the TGI in experiment [3], in experiment [4], in experiment [6], in [10], in experiment [7] and in [8] was more than 100 µM each time.

Take `Cc1ccccc1NC(=O)C(=O)C(C#N)c1ccc(Cl)cc1` (centres undefined): the TGI in experiment [4], in experiment [6], in experiment [10], in [7] and in experiment [8] was more than 100 µM throughout.

The compound `CC1(C)CC(=O)C(CCC(=O)/C=C/c2ccccc2)C(=O)C1` displayed a TGI in experiment [1] of more than 100 µM.

In experiment [1], `Cc1cc2nc(C(C)C(=O)c3ccc(Cl)cc3)c(=O)[nH]c2cc1C` (centres undefined) gave a TGI of 40.4 µM.

`COc1cc(C2c3[nH]c4ccccc4c3C[C@H]3COC(=O)N23)cc(OC)c1OC` (some centres undefined) gave a TGI in experiment [1] of 0.0492 µM.

Turning to `CC1CC(C2=CC=CCS2)=Nc2ccccc2S1` (centres undefined), the TGI in experiment [3], in experiment [4], in experiment [6], in [10], in [7] and in [8] was more than 100 µM in each case.

Turning to `CCc1nc(N)nc(N)c1-c1ccc(NCCN)c([N+](=O)[O-])c1`, in experiment [1], the TGI was more than 100 µM.

`CC[C@]12CCCN3CCc4c(n(c5ccccc45)C(=O)C1)[C@@H]32` had a TGI in experiment [1] of 4.79 µM.

Take `CN1N=CSC12C(=O)N(c1ccc(Cl)cc1)C(=O)N2c1ccc(Cl)cc1` (centres undefined): the TGI in [3] was more than 100 µM; in experiment [4] it was 69.7 µM; in experiment [6], more than 100 µM; in experiment [7], more than 100 µM.

As to `O=C(Nc1c(O)[nH]c(=S)[nH]c1=O)c1ccccc1F`, the TGI in experiment [3], in [4], in experiment [6], in experiment [10] and in [7] was more than 100 µM throughout.

Compound `Cc1c(N2CCCC2)cc2c(c1NC(=O)c1ccccc1Cl)C(C)(C)CC2(C)C` gave a TGI in experiment [1] of 28.5 µM.

Regarding `Cc1ccc(NC(=O)c2cc3cc(N=Nc4ccc(Br)cc4)ccc3oc2=O)cc1`, the TGI in experiment [7] and in experiment [8] was more than 100 µM throughout.

Turning to `CCOc1ccccc1NC(=O)CC1C(=O)Nc2ccccc2S1=O` (centres undefined), the TGI in experiment [3], in experiment [6], in [7] and in [8] was more than 100 µM throughout.

On to `O=C(O)CCNc1ccccc1C(=O)O`, for which, in [1], the TGI is more than 100 µM.

With `ON/N=C/c1cc2c(cc1Br)OCO2`, the TGI in experiment [3], in experiment [4], in experiment [6], in experiment [10] and in experiment [7] was more than 386 µM each time.

On to `COc1c(C=O)c2c(c(OC)c1OC)-c1ccc(OC)c(=O)cc1[C@@H](NC(C)=O)CC2`, for which the TGI in experiment [3] is more than 100 µM; in experiment [4] it was more than 100 µM; in experiment [6] it was 0.218 µM; in [10], 18.2 µM; in experiment [7], more than 100 µM; in [8], 37 µM.

Regarding `Cc1cn(Cc2ccccc2CCO)c(=S)[nH]c1=O`, the TGI in [3], in [4], in experiment [6], in experiment [10] and in experiment [8] was more than 100 µM in each case.

Turning to `COc1ccc(C2CC(=O)c3c(O)cc(O)cc3O2)cc1O` (centres undefined), the TGI in experiment [3], in experiment [6], in experiment [10], in [7] and in experiment [8] was more than 100 µM in each case.

In turn, `Clc1ncnc(Cl)c1Cl` returned a TGI in experiment [1] of more than 100 µM.

Compound `O=C(O)C/C(=C\c1ccco1)C(=O)O` came in with a TGI in [1] of more than 100 µM.

Turning to `CC(C)/C=C1\CCC(CN2CCCC2)C1=O` (centres undefined), the TGI in [3] was more than 60.4 µM; in experiment [4] it was 17.3 µM; in experiment [6], 36 µM; in experiment [7], 10.4 µM; in experiment [8], 31.5 µM.

Regarding `CN1C(=O)CC(c2cccc(C3CC(=O)N(C)C3=O)n2)C1=O` (centres undefined), the TGI in experiment [3], in experiment [4], in experiment [6] and in [7] was more than 100 µM each time.

`Cc1ccc(S(=O)(=O)OC2CCN(C)CC2)cc1` displayed a TGI in experiment [1] of more than 100 µM.

On to `CCOC(=O)c1ccc2[nH]c(-c3ccc(S(=O)(=O)F)cc3)cc(=O)c2c1`, for which the TGI in experiment [1] was more than 100 µM.

Consider `COc1cc(/C=C/c2ccncc2)cc(OC)c1OC`, for which the TGI in [4] was more than 100 µM; in experiment [6], more than 100 µM; in experiment [10], more than 100 µM; in experiment [7], more than 100 µM; in experiment [8], 91.3 µM.

On to `CC(C)(C)OC1=C(OC(C)(C)C)C(O)(c2ccccc2)C1=O` (centres undefined), for which the TGI in [3], in experiment [4], in experiment [10] and in [7] was more than 100 µM throughout.

Consider `OC1[C@H]([C@H]2CCCC[C@@H]2O)CCC[C@@H]1[C@@H]1CCCC[C@H]1O` (some centres undefined), for which the TGI in experiment [3], in experiment [4], in experiment [6], in [7] and in [8] was more than 100 µM throughout.

For `O=C(Nc1ccccc1-c1n[nH]c(=S)[nH]c1=O)C(F)(F)F`, the TGI in experiment [3], in experiment [7] and in experiment [8] was more than 100 µM in each case.

Consider `COc1cccc(C2c3cc4c(cc3OC(C)(N3CCCC3)C2C)OCO4)c1OC` (centres undefined), for which the TGI in experiment [1] stood at 34.7 µM.

In the case of `COC(=O)C1=C(c2ccc(OC)c(OC)c2)OC(c2ccc(OC)c(OC)c2)C1` (centres undefined), the TGI in [3] was more than 100 µM; in experiment [4], more than 100 µM; in experiment [6], more than 100 µM; in experiment [7] it was more than 100 µM; in experiment [8], 65.2 µM.

For `Cc1cc(N(CCC#N)CCC#N)ccc1/C=C1N=C(/C=C\c2ccccc2)OC\1=O`, the TGI in experiment [3], in [4], in [6], in experiment [7] and in experiment [8] was more than 100 µM throughout.

For the compound `COc1ccc(C(=O)c2cc(OC)c(OC)c(OC)c2)cc1`, the TGI is 0.0452 µM in [1]; more than 100 µM in [3]; more than 100 µM in experiment [4]; more than 100 µM in experiment [10]; more than 100 µM in experiment [7]; more than 27.7 µM in experiment [8].

For the compound `O=[N+]([O-])c1ccc(S(=O)(=O)Cc2ccccc2)c([N+](=O)[O-])c1`, in [1], the TGI came to 4.09 µM.

Turning to `CS/C(=N\C(=S)N(C)C)N(c1ccccc1)c1nc(=[N+](C)C)ss1`, the TGI in experiment [3] came to 14.8 µM; in experiment [6] it was 50.3 µM.

Consider `COC(=O)[C@@]12C(=O)C=CC(=O)[C@@H]1C1C(=CC2COC(C)=O)O[C@@H]2OC3(CCCCC3)O[C@H]12` (some centres undefined), for which the TGI is 25.1 µM in experiment [1]; 29.6 µM in [3]; 24.9 µM in [4]; 31.8 µM in experiment [6]; 50 µM in experiment [10]; 22.7 µM in [7]. The compound further registered a TGI in experiment [8] of 26.3 µM.
